EP0223143A2, “Analogs of atrial natriuretic peptides” (CALIFORNIA BIOTECHNOLOGY, INC., priority 1985, dated 1987)
Entries after “also recorded” stand apart in the source; their conditions may differ. Each block holds one compound with its values, some of them ahead of it. Where a SMILES comes first, the peptide text is derived from it. Bridges are numbered along the chain shown (N, C = ends). Where no end group is shown, it is not given here. [ ]: non-standard residue; d: D form. The star is where a group is joined. Phenylacetyl(4-Ph) = O=C(Cc1ccc(-c2ccccc2)cc1)*; Acetyl(2-naphthyloxy) = O=C(COc1ccc2ccccc2c1)*; Acetyl(2-naphthyl) = O=C(Cc1ccc2ccccc2c1)*

Experiments:
[1] = tested on: specific receptor sites on BASM or BAE cells; assay: competitive displacement receptor binding assay (Tables IA-IE); design: species or system bovine; conditions: statements in words on Tables IA-IE; displacement of [^125I]-rANP(126-150)
Source text: (§1) An assay has been developed, generally in accordance with the disclosure of Schenk, supra, and Scarborough, R.M. et al., J. Biol. Chem. 261:12960-12964 (1986), which evaluates the ability of ANP analogs to compete with a labeled native ANP for binding to cultured BASM and BAE cells. This native ANP, having the amino acid sequence: [drawing 103] was iodinated on the Carboxy-terminal Y residue and is identified as […]. Analogous "competitive displacement" receptor binding assays are considered commonplace in the art for examining specific ligand-receptor interactions.
(§2) Assuming these ANP analogs act at one or more ANP receptor sites, then increased receptor affinity should reflect increased biological potency.

[2] = tested on: pentobarbital anesthetized dogs; assay: diuresis and natriuresis in anesthetized dogs; format: in vivo; conditions: vs saline controls
Procedure: In these examples, cannulae were placed in the left and right ureters and femoral vein of anesthetized dogs and urine was collected from the ureters. Analog peptides were administered via the femoral vein. Prior to infusing analog peptides, saline was infused for 30 minutes and urine was then collected for three ten minute collection periods. Urine volume was determined gravimetrically and urine sodium was determined photometrically.
Following these three baseline collection periods, the selected analog peptides were infused for 60 minutes and urinary flow was measured for an additional 60 minutes following infusion. During infusion (60 minutes) and recovery (60 minutes), ten minute collection periods were obtained. Control animals which received only saline were studied in parallel.

anesthetized rats = assay: diuresis in anesthetized rats; format: in vivo; conditions: compared with baseline, Figure 2
Procedure: In one set of examples, cannulae were placed in the left and right ureters and femoral vein of anesthetized rats and urine was collected from the ureters. Analog peptides were administered via the femoral vein. Prior to infusing the analog peptides, saline was infused for 30 minutes, urine was collected for 6 five minutes baseline periods and urine volume was determined gravimetrically. Following these baseline collection periods, various analog peptides were infused for 30 or 60 minutes and urine volume was measured in five minute periods during infusion and for 60 minutes following infusion (at which time rats were returned to saline). Data was examined by averaging urine flow rates for six five- minute baseline control periods immediately preceding infusion, and comparing values during and after administration of peptides with the "baseline" control values. Responses to peptides are thus evaluated and plotted as the percent of baseline control responses. Specific examples are shown in Figures 2A-H. The error bars at the beginning of the graphs represent baseline values ± standard deviations. Responses to peptides that are substantially above baseline ± SD can thus be interpreted as being statistically significant increases.

[3] = target: T1, BASM cell-associated receptors (Bos taurus, UniProt P10730); assay: competitive displacement receptor binding assay, BASM cells (Figure 1); design: species or system bovine; conditions: 0.5 nM [^125I]-rANP(126-150), increasing concentrations of unlabeled peptide
T1 construct: endogenous in cells; host or cells: cultured BASM cells
T1 sequence (P10730 42-537): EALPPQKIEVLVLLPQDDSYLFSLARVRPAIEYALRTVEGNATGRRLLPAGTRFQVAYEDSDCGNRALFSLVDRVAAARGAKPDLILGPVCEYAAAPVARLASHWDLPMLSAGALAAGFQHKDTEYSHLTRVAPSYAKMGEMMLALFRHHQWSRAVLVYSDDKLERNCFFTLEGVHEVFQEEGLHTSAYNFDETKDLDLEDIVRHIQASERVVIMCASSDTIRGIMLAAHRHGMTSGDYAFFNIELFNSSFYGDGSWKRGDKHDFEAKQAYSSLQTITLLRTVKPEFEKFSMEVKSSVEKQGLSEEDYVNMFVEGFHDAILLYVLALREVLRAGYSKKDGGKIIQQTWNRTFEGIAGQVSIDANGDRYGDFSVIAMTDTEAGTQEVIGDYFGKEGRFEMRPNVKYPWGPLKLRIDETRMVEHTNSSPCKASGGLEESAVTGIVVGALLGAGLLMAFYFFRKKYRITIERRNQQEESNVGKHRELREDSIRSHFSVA
Source text: as §1, §2

[4] = infused at 3 µg/kg/minute for 60 minutes
[5] = infused at 1 µg/kg/minute for 60 minutes

Compound: CC[C@H](C)[C@@H]1NC(=O)[C@H](CCCNC(=N)N)NC(=O)[C@H](CC(=O)O)NC(=O)[C@H]([C@@H](C)CC)NC(=O)[C@H](CCCNC(=N)N)NC(=O)CNC(=O)[C@@H](NC(=O)[C@H](CO)NC(=O)[C@H](CO)NC(=O)[C@@H](N)CCCNC(=N)N)CSSC[C@@H](C(=O)N[C@@H](CC(N)=O)C(=O)N[C@@H](CO)C(=O)N[C@@H](Cc2ccccc2)C(=O)N[C@@H](CCCNC(=N)N)C(=O)N[C@@H](Cc2ccc(O)cc2)C(=O)O)NC(=O)CNC(=O)[C@H](CC(C)C)NC(=O)CNC(=O)[C@H](CO)NC(=O)[C@H](CCC(N)=O)NC(=O)[C@H](C)NC(=O)CNC1=O [AP24, R-S-S-C-G-R-I-D-R-I-G-A-O-S-G-L-G-C-N-S-F-R-Y] (H-RSSCGRIDRIGAQSGLGCNSFRY-OH; disulfide 4-18)
receptor binding affinity (Ki(app)) [1]: weaker apparent affinity

Compound: CC[C@H](C)[C@H](NC(=O)[C@H](CCCNC(=N)N)NC(=O)[C@H](CC(=O)O)NC(=O)[C@@H](NC(=O)[C@@H](CCCNC(=N)N)NC(=O)CNC(=O)CNC(=O)[C@H](Cc1ccccc1)NC(=O)[C@H](C)N)[C@@H](C)CC)C(=O)NCC(=O)N[C@@H](C)C(N)=O [AP301, A-F-G-G-[D-R]-I-D-R-I-G-A-NH2] (H-AFGG[dR]IDRIGA-NH2)
receptor binding affinity (Ki(app)) [1]: inactive

Compound: CC[C@H](C)[C@H](NC(=O)[C@H](CCCNC(=N)N)NC(=O)[C@@H](CC(=O)O)NC(=O)[C@@H](NC(=O)[C@H](CCCNC(=N)N)NC(=O)CNC(=O)CNC(=O)[C@H](Cc1ccccc1)NC(=O)[C@H](C)N)[C@@H](C)CC)C(=O)NCC(=O)N[C@@H](C)C(N)=O [AP303, A-F-G-G-R-I-[D-D]-R-I-G-A-NH,] (H-AFGGRI[dD]RIGA-NH2)
receptor binding affinity (Ki(app)) [1]: inactive

Compound: CC[C@H](C)[C@H](NC(=O)[C@H](CCCNC(=N)N)NC(=O)CNC(=O)CNC(=O)[C@H](Cc1ccccc1)NC(=O)[C@H](C)N)C(=O)N[C@@H](CC(=O)O)C(=O)N[C@H](CCCNC(=N)N)C(=O)N[C@H](C(=O)NCC(=O)N[C@@H](C)C(N)=O)[C@@H](C)CC [AP304, A-F-G-G-R-I-D-[D-R]-I-G-A-NH2] (H-AFGGRID[dR]IGA-NH2)
receptor binding affinity (Ki(app)) [1]: inactive

Compound: CC[C@H](C)[C@H](NC(=O)[C@H](CCCNC(=N)N)NC(=O)[C@H](CC(=O)O)NC(=O)[C@@H](NC(=O)[C@H](CCCNC(=N)N)NC(=O)CNC(=O)CNC(=O)Cc1ccc2ccccc2c1)[C@@H](C)CC)C(=O)NCC(=O)N[C@@H](C)C(N)=O [AP306, [2-Napthylacetyl]-G-G-R-I-D-R-I-G-A-NH2] ({Acetyl(2-naphthyl)}-GGRIDRIGA-NH2)
receptor binding affinity (Ki(app)) [1]: high binding affinity; also recorded: substantial Ki(app)s
urinary sodium excretion [2, 4]: significantly increased
urine flow rate (urine volume) [2, 4]: significantly increased

Compound: CC[C@H](C)[C@H](NC(=O)[C@H](CCCNC(=N)N)NC(=O)[C@H](CC(=O)O)NC(=O)[C@@H](NC(=O)[C@H](CCCNC(=N)N)NC(=O)CNC(=O)CNC(=O)Cc1ccc2ccccc2c1)[C@@H](C)CC)C(N)=O [AP314, [2-Napthylacetyl]-G-G-R-I-D-R-I-NH2] ({Acetyl(2-naphthyl)}-GGRIDRI-NH2)
receptor binding affinity (Ki(app)) [1]: high binding affinity; also recorded: substantial Ki(app)s
urinary sodium excretion [2, 5]: significantly increased
urine flow rate (urine volume) [2, 5]: significantly increased

Compound: CC[C@H](C)[C@H](NC(=O)[C@H](CCCNC(=N)N)NC(=O)[C@H](CC(=O)O)NC(=O)[C@@H](NC(=O)[C@H](CCCNC(=N)N)NC(=O)CNC(=O)CNC(=O)Cc1ccc(-c2ccccc2)cc1)[C@@H](C)CC)C(N)=O [AP317, [4-Biphenylacetyl]-G-G-R-I-D-R-I-NH2] ({Phenylacetyl(4-Ph)}-GGRIDRI-NH2)
receptor binding affinity (Ki(app)) [1]: greatly diminished activity

Compound: CC[C@H](C)[C@H](NC(=O)[C@H](CCCNC(=N)N)NC(=O)[C@H](CC(=O)O)NC(=O)[C@@H](NC(=O)[C@H](CCCNC(=N)N)NC(=O)CNC(=O)CNC(=O)COc1ccc2ccccc2c1)[C@@H](C)CC)C(N)=O [AP319, [2-Napthoxyacetyl]-G-G-R-I-D-R-I-NH2] ({Acetyl(2-naphthyloxy)}-GGRIDRI-NH2)
receptor binding affinity (Ki(app)) [1]: high binding affinity
urine flow rate (urine volume) (anesthetized rats; infused at 10 µg/min via femoral vein): significantly increased

Compound: CC[C@H](C)[C@H](NC(=O)[C@H](CCCNC(=N)N)NC(=O)[C@H](CC(=O)O)NC(=O)[C@@H](NC(=O)[C@H](CCCNC(=N)N)NC(=O)CNC(=O)[C@@H](C)NC(=O)COc1ccc2ccccc2c1)[C@@H](C)CC)C(N)=O [AP322, [2-Napthoxyacetyl]-[D-A]-G-R-I-D-R-I-NH2] ({Acetyl(2-naphthyloxy)}-[dA]GRIDRI-NH2)
receptor binding affinity (Ki(app)) [1]: greatly diminished activity

Compound: CC[C@H](C)[C@H](NC(=O)[C@H](CCCNC(=N)N)NC(=O)CNC(=O)CNC(=O)Cc1ccc2ccccc2c1)C(=O)N[C@@H](CC(=O)O)C(=O)N[C@@H](CCCNC(=N)N)C(=O)N[C@H](C(N)=O)C(C)C [AP333, [2-Napthylacetyl]-G-G-R-I-D-R-V-NH2] ({Acetyl(2-naphthyl)}-GGRIDRV-NH2)
receptor binding affinity (Ki(app)) [1]: greatly diminished activity

[^125I]-rANP(126-150) binding to BASM cell-associated receptors [3]: effectively prevent
Compound: (desNH2-F)-G-G-R-I-D-R-I-NH2 [AP132]

Compound: AFGGRIDRIGA-NH2 [AP101, A-F-G-G-R-I-D-R-I-G-A-NH2]
[^125I]-rANP(126-150) binding to BASM cell-associated receptors [3]: effectively prevent
receptor binding affinity (Ki(app)) [1]: substantial Ki(app)s
urine flow rate (urine volume) (anesthetized rats; infused at 5 µg/min via femoral vein): significantly increased
urinary sodium excretion [2, 4]: significantly increased
urine flow rate (urine volume) [2, 4]: significantly increased

Compound: GGRIDRIGAA-NH2 [AP105, G-G-R-I-D-R-I-G-A-A-NH2]
receptor binding affinity (Ki(app)) [1]: inactive

Compound: RIDRIG-NH2 [AP125, R-I-D-R-I-G-NH2]
receptor binding affinity (Ki(app)) [1]: inactive
